{"source": "patent US10478430B2", "about": "“Compounds useful as inhibitors of ATR kinase and combination therapies thereof” (Vertex Pharmaceuticals Incorporated, priority 2012, dated 2019)", "type_in_all_cases": "cell-based", "key": {"[1]": {"system": "H23 non-small cell lung cancer cells", "assay": "MTS cell density assay, synergy of VE-822 with Rucaparib (MacSynergy II)", "settings": "VE-822 + Rucaparib, 96 h, 95% confidence interval", "method": "(§1) H23 non-small cell lung cancer (a), U2OS osteosarcoma (b), HCT116 colorectal cancer (c), MCF7 breast cancer (d), HT144 melanoma (e), HT29 colorectal cancer (f), and PSN1 pancreatic cancer (g) cells were treated in triplicate with the indicated concentrations of VE-822 and Rucaparib for 96h. Cell density was measured by 3-(4,5-dimethylthiazol-2-yl)-5-(3-carboxymethoxyphenyl)-2-(4-sulfophenyl)-2H-tetrazolium (MTS) assay, and synergy was analyzed at the 95% confidence interval with MacSynergy II software. A range of synergy was observed from strong (a) to negligible (g).\n(§2) H23 non-small cell lung cancer (a) and HFL1 normal lung (b) cells were treated in triplicate with the indicated concentrations of VE-822 and Rucaparib for 96h. Cell density was measured by 3-(4,5-dimethylthiazol-2-yl)-5-(3-carboxymethoxyphenyl)-2-(4-sulfophenyl)-2H-tetrazolium (MTS) assay, and synergy was analyzed at the 95% confidence interval with MacSynergy II software.\nFIG. 4. […] The synergy plots can be analyzed using methods described in Reaper et al, “Selective Killing of ATM- or p53-deficient cancer cells through inhibition of ATR”, Nat. […]\nFIG. 5. […] The synergy plots can be analyzed using methods described in Reaper et al, “Selective Killing of ATM- or p53-deficient cancer cells through inhibition of ATR”, Nat. […]"}, "[2]": {"system": "PSN1 pancreatic cancer cells", "assay": "MTS cell density assay, synergy of VE-822 with Rucaparib (MacSynergy II)", "settings": "VE-822 + Rucaparib, 96 h, 95% confidence interval", "method": "as §1\n(§3) FIG. 4. H23 non-small cell lung cancer (a), U2OS osteosarcoma (b), HCT116 colorectal cancer (c), MCF7 breast cancer (d), HT144 melanoma (e), HT29 colorectal cancer (f) and PSN1 pancreatic cancer (g) cells were treated in triplicate with the indicated concentrations of VE-822 and Rucaparib for 96 h, cell density was measured by 3-(4,5-dimethylthiazol-2-yl)-5-(3-carboxymethoxyphenyl)-2-(4-sulfophenyl)-2H-tetrazolium (MTS) assay and synergy was analyzed at the 95% confidence interval with MacSynergy II software. A range of synergy was observed from strong (a) to negligible (g). The synergy plots can be analyzed using methods described in Reaper et al, “Selective Killing of ATM- or p53-deficient cancer cells through inhibition of ATR”, Nat. Chem. Bio. 2011, Apr. 13; 9 (7):428-430."}, "[3]": {"system": "HFL1 normal lung cells", "assay": "MTS cell density assay, synergy of VE-822 with Rucaparib (MacSynergy II)", "settings": "VE-822 + Rucaparib, 96 h, 95% confidence interval", "method": "as §2\nFIG. 5. H23 non-small cell lung cancer (a) and HFL1 normal lung (b) cells were treated in triplicate with the indicated concentrations of VE-822 and Rucaparib for 96 h, cell density was measured by 3-(4,5-dimethylthiazol-2-yl)-5-(3-carboxymethoxyphenyl)-2-(4-sulfophenyl)-2H-tetrazolium (MTS) assay and synergy was analyzed at the 95% confidence interval with MacSynergy II software. The synergy plots can be analyzed using methods described in Reaper et al, “Selective Killing of ATM- or p53-deficient cancer cells through inhibition of ATR”, Nat. Chem. Bio. 2011, Apr. 13; 9 (7):428-430."}, "[4]": {"system": "H23, U2OS, HCT116, MCF7, HT144, HT29 and PSN1 cancer cells", "assay": "MTS cell density assay, synergy of VE-822 with Rucaparib across a cancer cell line panel", "settings": "seven cancer cell lines, VE-822 + Rucaparib, 96 h, in vitro", "method": "as §1, §3"}, "[5]": {"system": "H23 non-small cell lung cancer and HFL1 normal lung cells", "assay": "MTS cell density assay, triple combination of VE-822, Rucaparib and ionizing radiation", "settings": "H23 versus HFL1 cells, with 2 Gy IR, 96 h, MacSynergy II modified for triple combination", "method": "(§4) In FIG. 6A, H23 non-small cell lung cancer (a) and HFL1 normal lung (b) cells were treated in triplicate with the indicated concentrations of VE-822 and Rucaparib together with 2 gray (Gy) of IR. Cell density was measured after 96h by 3-(4,5-dimethylthiazol-2-yl)-5-(3-carboxymethoxyphenyl)-2-(4-sulfophenyl)-2H-tetrazolium (MTS) assay, and synergy was analyzed at the 95% confidence interval with MacSynergy II software modified for triple combination studies (Nguyen et al, PLOS One 5:9332). In FIG. 6B, H23 non-small cell lung cancer (a) and HFL1 normal lung (b) cells were treated in triplicate with the indicated concentrations of VE-822 and Rucaparib together with 80nM cisplatin. Cell density was measured after 96h by 3-(4,5-dimethylthiazol-2-yl)-5-(3-carboxymethoxyphenyl)-2-(4-sulfophenyl)-2H-tetrazolium (MTS) assay, and synergy was analyzed at the 95% confidence interval with MacSynergy II software modified for triple combination studies (Nguyen et al, PLOS One 5:9332).\nFIG. 6a. […] The synergy plots can be analyzed using methods described in Reaper et al, “Selective Killing of ATM- or p53-deficient cancer cells through inhibition of ATR”, Nat. […]"}, "[6]": {"system": "H23 non-small cell lung cancer and HFL1 normal lung cells", "assay": "MTS cell density assay, triple combination of VE-822, Rucaparib and cisplatin", "settings": "H23 versus HFL1 cells, with 80 nM cisplatin, 96 h, MacSynergy II modified for triple combination", "method": "as §4\nFIG. 6b. […] The synergy plots can be analyzed using methods described in Reaper et al, “Selective Killing of ATM- or p53-deficient cancer cells through inhibition of ATR”, Nat. […]"}}, "note": "“Also recorded” adds a separate entry of the source."}
{"smiles": "CNCc1ccc(-c2cc(-c3nc(-c4ccc(S(=O)(=O)C(C)C)cc4)cnc3N)on2)cc1", "note": "[VE-822]", "values": [{"measurement": "synergy with the PARP inhibitor Rucaparib", "setting": "[1]", "value": "strong; also recorded: synergizes with the PARP inhibitor Rucaparib in cancer"}, {"measurement": "synergy with the PARP inhibitor Rucaparib", "setting": "[2]", "value": "negligible"}, {"measurement": "synergy with the PARP inhibitor Rucaparib", "setting": "[3]", "value": "not normal cells"}, {"measurement": "synergy with the PARP inhibitor Rucaparib across cancer cell lines", "setting": "[4]", "value": "synergizes with the PARP inhibitor Rucaparib in many (but not all) cancer cell lines"}, {"measurement": "synergy of the combination of VE-822, Rucaparib and ionizing radiation", "setting": "[5]", "value": "cancer-selective synergistic effects"}, {"measurement": "synergy of the combination of VE-822, Rucaparib and cisplatin", "setting": "[6]", "value": "cancer-selective synergistic effects"}]}
